Data taken from article PMC11676693, “Population Pharmacokinetic and Pharmacodynamic Study of Palbociclib in Children and Young Adults with Recurrent, Progressive, or Refractory Brain Tumors” (Pharmaceutics, 2024).
Where two headings read alike, the source gives them in different places.

Experiments:
platelets (PLT) = experiment: Population pharmacodynamic model of platelet (PLT) dynamics; type: in vivo, children and young adults
Description: (§1) A complete blood count (CBC) with differential was performed pre-therapy, weekly during course 1, and then weekly during courses 2 to 26. The CBC provided platelet and absolute neutrophil counts (ANCs).
The model describing the ANC and platelet dynamics has been previously described. The model for the ANC consisted of a bone marrow compartment with proliferating neutrophils, three transient compartments that represent the maturation process of the neutrophils from blasts to circulating neutrophils, and a circulating neutrophil compartment. The model included the negative feedback effects of endogenous G-CSF, which affected the growth rate of proliferating cells in a manner inversely proportional to the concentration of circulating neutrophils. We assumed that palbociclib only affected the proliferating neutrophils in the bone marrow compartment. We used a similar structural model for platelet dynamics. […]
The parameters for the pharmacodynamic model were estimated using nonlinear mixed-effects modeling with the SAEM algorithm as implemented in the Monolix® software version 2023R1 (Lixoft, Antony, France). The palbociclib pharmacokinetics were fixed to each individual’s post hoc estimated parameters (as determined above). […] A proportional residual error model was used to quantify the unexplained variability of the model. […]

[1] = in vivo
Description: The patients included in this palbociclib population pharmacokinetic/pharmacodynamic analysis were treated in the phase I clinical trial PBTC-042 (NCT02255461), which evaluated single-agent oral palbociclib therapy in children and young adults with recurrent, progressive, or refractory brain tumors. Details of this clinical trial have been reported elsewhere. In adults treated with palbociclib, myelosuppression has been the main dose-limiting toxicity (DLT) reported, and the toxicity is greater in more heavily pretreated patients. Thus, patients in this pediatric trial were divided into two strata: stratum I included patients who were not heavily pretreated, while stratum II included heavily pretreated patients. The starting dosage for stratum I was 50 mg/m^2, with planned dose escalations to 75 mg/m^2 and 95 mg/m^2. The planned starting dosage for stratum II was one dosage level below the MTD for stratum I. The Institutional Review Board approved this trial and written informed consent was obtained from patients, parents, or legal guardians before the onset of any study procedures. Assent was obtained from patients as appropriate based on local institutional guidelines.
Pharmacokinetic studies of oral palbociclib (PD-0332991) were performed on course 1, day 1 and day 21 to evaluate the population pharmacokinetics of palbociclib. On day 2 of course 1, the palbociclib dose was held. On day 1 of course 1, palbociclib single-dose serial blood samples were drawn pre-dose and 0.5, 1, 2, 4, 8 (±1), 24 (±4), and 48 (±4) hours (immediately prior to the day 3 dose) after the oral dose. On day 21 of course 1, palbociclib steady-state serial blood samples were collected pre-dose and 1, 2, 4, 8 (±1), and 24 (±4) hours (immediately prior to the day 22 dose) after the dose.
At each time point, whole blood (2 mL) was collected in K2EDTA tubes, spun to plasma within one hour of collection, and stored at −20 °C until analysis. Palbociclib plasma concentrations were measured using a validated liquid chromatography–mass spectrometric assay method with a lower limit of quantitation (LLOQ) of 1 ng/mL [14].
Palbociclib serum concentration–time data from course 1, day 1 and day 21 were analyzed using nonlinear mixed-effects modeling implemented in Monolix software version 2023R1 (Lixoft, Antony, France) using the Stochastic Approximation Expectation Maximization (SAEM) algorithm. Inter-individual and inter-occasion variabilities were assumed to be log-normally distributed. A proportional residual error model was used to quantify the unexplained variability of the model. Error terms were assumed to be normally distributed. A one-compartment model with first-order absorption, the absorption lag time, and first-order elimination was used. Specifically, the PK parameters estimated included the absorption lag time (Tlag), absorption rate constant (ka), apparent oral volume (V/F), and apparent oral clearance (CL/F), where F was the bioavailability, which was not identifiable given only oral dosing was used. The inter-individual variability was estimated for all parameters. Additionally, the inter-occasion variability was estimated for the CL/F. The palbociclib dosage (i.e., the palbociclib dosage normalized to the patient body surface area (BSA)) was used as the model input. Data below the limit of quantitation (BLQ) were censored according to the Beal method M3 [17], as implemented in Monolix. […]

[2] = cited from earlier work
[3] = design: method as in PMID 37553297; settings: mean (range), 12 children, cited from earlier work
[4] = test system: proliferating neutrophils in the bone marrow compartment (ANC); experiment: Population pharmacodynamic model of ANC (neutrophil dynamics); type: in vivo, children and young adults
Description: as §1
The model describing the ANC and platelet dynamics has been previously described. The model for the ANC consisted of a bone marrow compartment with proliferating neutrophils, three transient compartments that represent the maturation process of the neutrophils from blasts to circulating neutrophils, and a circulating neutrophil compartment. The model included the negative feedback effects of endogenous G-CSF, which affected the growth rate of proliferating cells in a manner inversely proportional to the concentration of circulating neutrophils. We assumed that palbociclib only affected the proliferating neutrophils in the bone marrow compartment. We used a similar structural model for platelet dynamics. The model describing the neutrophil dynamics is shown in Equations (1)–(5) and Figure S1. (1) NPBM/dt=kinKM/KM+NcircIC50n/IC50n+Cpalblociclibn−kbpNPBM (2) dNT1/dt=kbpNPBM−NT1 (3) dNT2/dt=kbpNT1−NT2 (4) dNT3/dt=kbpNT2−NT3 (5) dNcirc/dt=kpbNT3−koutNcirc
The model parameters were as follows: NPBM: proliferating bone marrow stem cells; NT1, NT2, and NT3: transient compartments describing the maturation phases of the neutrophils; Ncirc: circulating neutrophils. Note that we were only able to observe this compartment. The model parameters were defined as follows: kin (1/days): the stem cell proliferation rate; kbp (1/days): the transition rate between transient compartments (the mean transition time from the bone marrow to the circulating neutrophils is 4/kbp); kout (1/days): the elimination rate of circulating neutrophils; KM (10^3/µL): the half-saturation effect of the G-CSF negative feedback; IC50 (nM) and n; the half-saturation effect and Hill coefficient of the palbociclib effects on the bone marrow; and Cpalbociclib (nM): the concentration of palbociclib in the plasma. Prior to treatment, the system was assumed to be steady-state, where Ncirc0 was the steady-state circulating neutrophil level. The following relationship between the model parameters was needed for the system to maintain steady state prior to treatment (Equation (6)). (6) KM=kbp/kin−kbpNcirc0
For this relationship to be positive, kin > kpb. To ensure this requirement, we defined kpb = fkbp·kin where fkbp ∈ [0, 1] and estimated fkbp. In addition, the initial conditions for the system at steady state (i.e., the steady-state solution to the system in the absence of the drug) are (Equation (7)) (7) kout/kbpNcirc0, kout/kbpNcirc0, kout/kbpNcirc0, kout/kbpNcirc0, Ncirc0
The parameters for the pharmacodynamic model were estimated using nonlinear mixed-effects modeling with the SAEM algorithm as implemented in the Monolix® software version 2023R1 (Lixoft, Antony, France). The palbociclib pharmacokinetics were fixed to each individual’s post hoc estimated parameters (as determined above). The inter-individual and inter-occasion variability were assumed to be log-normally distributed for all parameters except fkbp, which was assumed to be a logit distribution, so its value will be between 0 and 1. A proportional residual error model was used to quantify the unexplained variability of the model. Error terms were assumed to be normally distributed.

[5] = median (5th–95th percentile), individual model estimates, first two courses

For `CC(=O)c1c(C)c2cnc(Nc3ccc(N4CCNCC4)cn3)nc2n(C2CCCC2)c1=O` [palbociclib], the IC50 (platelets (PLT); Homo sapiens, Platelet, read-out: IC50 (half-saturation effect of palbociclib on the bone marrow)) was 559 nM, the “individuals with grade 1 (<100 ×) or greater thrombocytopenia” value (platelets (PLT); individual model estimates, first two courses, 31 individuals) was “three” and the “Inter-patient variability (IIV) of CL/F” value ([1]; human) was 0.24. For the same molecule, the absorption rate constant ([1]; human) was 0.48 h⁻¹, the “decrease of inter-patient variability of CL/F with inclusion of AST” value ([1]; human) was 10% and the “fold lower apparent oral clearance” value ([1]; human, po) was 2 fold. For the same molecule, the “effect of concomitant drugs as covariates on CL/F” value [1] was “None of the concomitant drugs considered as covariates were significant”, the apparent oral clearance ([2]; Courlet, 45 women with metastatic breast cancer, two-compartment model) was 67 L/h and the apparent oral clearance ([2]; Courlet, 45 women with metastatic breast cancer) was 39 L/h/m^2. For the same molecule, the apparent oral clearance ([2]; Royer, adults, 124 patients) was 34 L/h/m^2, the apparent oral clearance ([2]; Royer, adults, therapeutic drug monitoring data, 124 patients) was 58 L/h and the apparent oral clearance ([2]; adults, 143 patients) was 34 L/h/m^2. For the same molecule, the apparent oral clearance ([2]; adults, therapeutic drug monitoring data, 143 patients) was 57 L/h, the “increase of apparent oral clearance” value ([2]; taken under fasting conditions along with concomitant proton pump inhibitors) was 56% and the “steady state apparent oral clearance” value ([3]; capsule and liquid formulations) was 40.4 (21.1–102.0) L/h/m^2. For the same molecule, the half-life [3] was 27.9 (4.5–86.8) hours, the IC50 ([4]; Homo sapiens, Neutrophil, read-out: IC50 (half-saturation effect of palbociclib on the bone marrow)) was 384 nM and the “cumulative nature of decreases in ANCs” value ([4]; courses 3 and 4 predicted from courses 1 and 2) was “not cumulative”. For the same molecule, the “time individuals had grade 3 or greater neutropenia” value ([4]; median (5th–95th percentile) (abstract)) was 4 (0, 21) days, the ANC nadir ([4]; median (5th–95th percentile), first two courses) was 1.0 (0.4, 3.3) × 10^3/µL and the “time below an ANC of 0.5 × 10^3/µL (grade 4 neutropenia)” value [4, 5] was 0 (0, 11) days/course. The “time below an ANC of 1.0 × 10^3/µL (grade 3 neutropenia)” value [4, 5] was 4 (0, 21) days/course and the “time below an ANC of 1.5 × 10^3/µL (grade 2 neutropenia)” value [4, 5] was 15 (0, 35) days/course.
